From patent US20110112147A1, “INDAZOLONE ANALOGS AS GLYCOGEN SYNTHASE ACTIVATORS” (priority 2009, published 2011) come the findings set out here.

pEC50: −log10 of the molar value.

This assay concerns glycogen synthase. Kind of assay: Glycogen Synthase (GS) Assay. Particulars: for pEC50: compound concentration needed to give 50% maximum activation; for GS SC200: compound concentration needed to stimulate 200% of the enzyme activity. In kind it is biochemical. As for the experimental part:
Twelve μL per well of substrate solution containing glycogen (4.32 mg/ml), 2.67 mM UDP-glucose, 21.6 mM phospho(enol)pyruvate and 2.7 mM NADH in 30 mM glycylglycine, pH 7.3 buffer was added into a polystyrene 384-well assay plate (BD Biosciences).
Compound solutions (8 μL/well) at various concentrations (0-300 μM) were added to the assay plate (columns 5-24). Compound solution contains 30 mM glycylglycine, pH 7.3, 40 mM KCl, 20 mM MgCl2, 9.2% DMSO, with (columns 15-24) or without (columns 5-14) 20 mM glucose 6-phosphate.
Enzyme solution (12 μL/well) containing glycogen synthase (16.88 μg/ml), pyruvate kinase (0.27 mg/ml), lactate dehydrogenase (0.27 mg/ml) in 50 mM Tris-HCl, pH 8.0, 27 mM DTT and bovine serum albumin (BSA, 0.2 mg/ml) was added to the assay plate (columns 3-24). As a blank control, enzyme solution without glycogen synthase was added into the top half wells of columns 1-2. To the bottom half wells of columns 1-2 were added a known activator, glucose 6-phosphate (at final concentration 5 mM) in addition to the enzyme solution. The reaction mixture was incubated at room temperature. The assay plate was then read for absorbance at 340 nm on an Envision reader every 3 minutes up to a total of 15 minutes.
The enzyme activity (with or without compound) was calculated by the reaction rate and represented by the optical density change (δOD) per minute. Percent stimulation of glycogen synthase activity by a compound at various concentrations was calculated by the following formula: […]
wherein Rs is the reaction rate of the enzyme in the presence of compound and Rt is the reaction rate of the enzyme in the absence of compound.
SC200 is defined as the compound concentration that is needed to stimulate 200% of the enzyme activity. EC50 is defined as the compound concentration that is needed to give 50% maximum activation.

For the compound `Cc1cc(F)c(F)cc1-c1ccc(OCc2cccc3c(=O)n(C)[nH]c23)cc1` [Example 1, 7-(4′,5′-Difluoro-2′-methyl-biphenyl-4-yloxymethyl)-2-methyl-1,2-dihydro-indazol-3-one], the pEC50 was 6.62 and the “GS SC200” value worked out at 0.13 µM.

On to `Cn1[nH]c2c(COc3ccc(-c4cc(F)c(F)cc4F)cc3)cccc2c1=O` [Example 2, 2-Methyl-7-(2′,4′,5′-trifluoro-biphenyl-4-yloxymethyl)-1,2-dihydro-indazol-3-one], for which the pEC50 was 5.75 and the “GS SC200” value came to 0.49 µM.

As for `COc1cc(F)c(F)cc1-c1ccc(OCc2cccc3c(=O)n(C)[nH]c23)cc1` [Example 3, 7-(4′,5′-Difluoro-2′-methoxy-biphenyl-4-yloxymethyl)-2-methyl-1,2-dihydro-indazol-3-one], the pEC50 was 6.48 and the “GS SC200” value stood at 0.04 µM.

Turning to `O=C(O)Cn1[nH]c2c(COc3ccc(-c4cc(F)c(F)cc4F)cc3)cccc2c1=O` [Example 4, [3-oxo-7-(2′,4′,5′-trifluoro-biphenyl-4-yloxymethyl)-1,3-dihydro-indazol-2-yl]-acetic acid], the pEC50 was 5.92 and the “GS SC200” value is 0.69 µM.

As to `COc1cc(F)c(F)cc1-c1ccc(OCc2cccc3c(=O)n(CC(=O)O)[nH]c23)cc1` [Example 5, [7-(4′,5′-Difluoro-2′-methoxy-biphenyl-4-yloxymethyl)-3-oxo-1,3-dihydro-indazol-2-yl]-acetic acid], the pEC50 is 6.70 and the “GS SC200” value is 0.06 µM.

Turning to `COCCn1[nH]c2c(COc3ccc(-c4cc(F)c(F)cc4F)cc3)cccc2c1=O.Cl` [Example 6, 2-(2-Methoxy-ethyl)-7-(2′,4′,5′-trifluoro-biphenyl-4-yloxymethyl)-1,2-dihydro-indazol-3-one Hydrochloride], the pEC50 was 6.10 and the “GS SC200” value stood at 0.52 µM.

`COCCn1[nH]c2c(COc3ccc(-c4cc(F)c(F)cc4OC)cc3)cccc2c1=O` [Example 7, 7-(4′,5′-Difluoro-2′-methoxy-biphenyl-4-yloxymethyl)-2-(2-methoxy-ethyl)-1,2-dihydro-indazol-3-one]: the pEC50 is 6.43 and the “GS SC200” value was determined as 0.11 µM.

With `O=c1c2cccc(COc3ccc(-c4cc(F)c(F)cc4F)cc3)c2[nH]n1CCO` [Example 8, 2-(2-Hydroxy-ethyl)-7-(2′,4′,5′-trifluoro-biphenyl-4-yloxymethyl)-1,2-dihydro-indazol-3-one], the pEC50 was 6.11 and the “GS SC200” value stood at 0.22 µM.

With `Cc1cc(F)c(F)cc1-c1ccc(OCc2cccc3c(=O)n(CC(=O)O)[nH]c23)cc1.Cl` [Example 9, [7-(4′,5′-Difluoro-2′-methyl-biphenyl-4-yloxymethyl)-3-oxo-1,3-dihydro-indazol-2-yl]acetic acid Hydrochloride], the pEC50 was 6.38 and the “GS SC200” value was 0.33 µM.

Consider `Cc1cc(F)c(F)cc1-c1ccc(OCc2cccc3c(=O)n(-c4ccc(F)cc4)[nH]c23)cc1` [Example 10, 7-(4′,5′-Difluoro-2′-methyl-biphenyl-4-yloxymethyl)-2-(4-fluoro-phenyl)-1,2-dihydro-indazol-3-one], for which the pEC50 was 5.83 and the “GS SC200” value was determined as 1.86 µM.

As for `COc1cc(F)c(F)cc1-c1ccc(OCc2cccc3c(=O)n(-c4ccc(F)cc4)[nH]c23)cc1` [Example 11, 7-(4′,5′-Difluoro-2′-methoxy-biphenyl-4-yloxymethyl)-2-(4-fluoro-phenyl)-1,2-dihydro-indazol-3-one], the pEC50 is 5.86 and the “GS SC200” value came out at 2.01 µM.

On to `COc1cc(F)c(F)cc1-c1ccc(OCc2cccc3c(=O)n(-c4cccnc4)[nH]c23)cc1` [Example 12, 7-(4′,5′-Difluoro-2′-methoxy-biphenyl-4-yloxymethyl)-2-pyridin-3-yl-1,2-dihydro-indazol-3-one], for which the pEC50 is 6.11 and the “GS SC200” value worked out at 0.60 µM.

For the compound `Cl.O=c1c2cccc(COc3ccc(-c4cc(F)c(F)cc4F)cc3)c2[nH]n1-c1cccnc1` [Example 13, 2-Pyridin-3-yl-7-(2′,4′,5′-trifluoro-biphenyl-4-yloxymethyl)-1,2-dihydro-indazol-3-one Hydrochloride], the pEC50 is 5.40 and the “GS SC200” value was determined as 2.75 µM.

Consider `O=c1c2cccc(COc3ccc(-c4cc(F)c(F)cc4Cl)cc3)c2[nH]n1-c1cccnc1` [Example 14, 7-(4′,5′-Difluoro-2′-chloro-biphenyl-4-yloxymethyl)-2-pyridin-3-yl-1,2-dihydro-indazol-3-one], for which the pEC50 was 5.73 and the “GS SC200” value was 1.14 µM.

As for `O=c1c2cccc(COc3ccc(-c4cc(F)c(F)cc4F)cc3)c2[nH]n1C[C@@H](O)CO` [Example 15, 2-((R)-2,3-Dihydroxy-propyl)-7-(2′,4′,5′-trifluoro-biphenyl-4-yloxymethyl)-1,2-dihydro-indazol-3-one], the pEC50 was 6.17 and the “GS SC200” value is 0.32 µM.

As to `O=c1c2cccc(COc3ccc(-c4cc(F)c(F)cc4F)cc3)c2[nH]n1C[C@H](O)CO` [Example 16, 2-((S)-2,3-Dihydroxy-propyl)-7-(2′,4′,5′-trifluoro-biphenyl-4-yloxymethyl)-1,2-dihydro-indazol-3-one], the pEC50 was 6.24 and the “GS SC200” value worked out at 0.41 µM.

Consider `COc1cc(F)c(F)cc1-c1ccc(OCc2cccc3c(=O)n(C[C@@H](O)CO)[nH]c23)cc1` [Example 17, 7-(4′,5′-Difluoro-2′-methoxy-biphenyl-4-yloxymethyl)-2-((R)-2,3-dihydroxy-propyl)-1,2-dihydro-indazol-3-one], for which the pEC50 was 6.57 and the “GS SC200” value turned out to be 0.06 µM.

On to `COc1cc(F)c(F)cc1-c1ccc(OCc2cccc3c(=O)n(C[C@H](O)CO)[nH]c23)cc1` [Example 18, 7-(4′,5′-Difluoro-2′-methoxy-biphenyl-4-yloxymethyl)-2-((S)-2,3-dihydroxy-propyl)-1,2-dihydro-indazol-3-one], for which the pEC50 was 6.60 and the “GS SC200” value was determined as 0.07 µM.

On to `Cc1cc(F)c(F)cc1-c1ccc(OCc2cccc3c(=O)n(C[C@@H](O)CO)[nH]c23)cc1` [Example 19, 7-(4′,5′-Difluoro-2′-methyl-biphenyl-4-yloxymethyl)-2-((R)-2,3-dihydroxy-propyl)-1,2-dihydro-indazol-3-one], for which the pEC50 was 6.64 and the “GS SC200” value was determined as 0.10 µM.

On to `Cc1cc(F)c(F)cc1-c1ccc(OCc2cccc3c(=O)n(C[C@H](O)CO)[nH]c23)cc1` [Example 20, 7-(4′,5′-Difluoro-2′-methyl-biphenyl-4-yloxymethyl)-2-((S)-2,3-dihydroxy-propyl)-1,2-dihydro-indazol-3-one], for which the pEC50 is 6.47 and the “GS SC200” value came out at 0.11 µM.

`O=c1c2cccc(COc3ccc(-c4cc(F)c(F)cc4Cl)cc3)c2[nH]n1C[C@@H](O)CO` [Example 21, 7-(2′-Chloro-4′,5′-difluoro-biphenyl-4-yloxymethyl)-2-((R)-2,3-dihydroxy-propyl)-1,2-dihydro-indazol-3-one]: the pEC50 is 6.59 and the “GS SC200” value worked out at 0.25 µM.

In the case of `O=c1c2cccc(COc3ccc(-c4cc(F)c(F)cc4Cl)cc3)c2[nH]n1C[C@H](O)CO` [Example 22, 7-(2′-Chloro-4′,5′-difluoro-biphenyl-4-yloxymethyl)-2-((S)-2,3-dihydroxy-propyl)-1,2-dihydro-indazol-3-one], the pEC50 is 6.52 and the “GS SC200” value turned out to be 0.16 µM.
